Data published in PubChem BioAssay AID248 (DTP/NCI, 2004).
Several values for one entry are separate records, joined by “and”; a condition that tells them apart may be missing. Equal entries are not always repeated. Inconclusive results and toxic doses are left out.

System: L1210 leukemia ip in BDF1 mice, survival T/C
Experiment: NCI In Vivo Anticancer Drug Screen. Data for tumor model L1210 Leukemia (intraperitoneal) in B6D2F1 (BDF1) mice
Conditions: endpoint: mean survival time, higher = longer survival
Summary of the method: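 Each compound was tested against a transplantable tumor grown in mice. The endpoint was survival, with treated animals benchmarked against vehicle controls as a simple ratio.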

[1] = dose: 50.0 mg/kg/injection, schedule: Q01DX009 (ip), vehicle: saline
[2] = dose: 50.0 mg/kg/injection, schedule: Q01DX001 (ip), vehicle: carboxymethylcellulose (CMC)
[3] = dose: 100.0 mg/kg/injection, schedule: Q01DX001 (ip), vehicle: carboxymethylcellulose (CMC)
[4] = dose: 200.0 mg/kg/injection, schedule: Q01DX001 (ip), vehicle: carboxymethylcellulose (CMC)
[5] = dose: 400.0 mg/kg/injection, schedule: Q01DX001 (ip), vehicle: carboxymethylcellulose (CMC)
[6] = dose: 100.0 mg/kg/injection, schedule: Q01DX001 (ip), vehicle: saline
[7] = dose: 200.0 mg/kg/injection, schedule: Q01DX001 (ip), vehicle: saline
[8] = dose: 100.0 mg/kg/injection, schedule: Q01DX009 (ip), vehicle: saline
[9] = dose: 100.0 mg/kg/injection, schedule: Q04DX003 (ip), vehicle: saline
[10] = dose: 200.0 mg/kg/injection, schedule: Q01DX009 (ip), vehicle: saline
[11] = dose: 200.0 mg/kg/injection, schedule: Q04DX003 (ip), vehicle: saline

For `CCCCCCCCOP(=O)(OCCCCCCCC)c1ccccc1`, the T/C (dose: 10.0 mg/kg/injection, schedule: Q01DX001 (ip), vehicle: acetone) was 91 % of control, the T/C (dose: 10.0 mg/kg/injection, schedule: Q04DX003 (ip), vehicle: acetone) was 97 % of control and the T/C (dose: 12.5 mg/kg/injection, schedule: Q01DX009 (ip), vehicle: saline) was 94 % of control. The T/C (dose: 20.0 mg/kg/injection, schedule: Q01DX001 (ip), vehicle: acetone) was 91 % of control, the T/C (dose: 20.0 mg/kg/injection, schedule: Q04DX003 (ip), vehicle: acetone) was 92 % of control and the T/C (dose: 25.0 mg/kg/injection, schedule: Q01DX009 (ip), vehicle: saline) was 94 % of control. For the same compound, the T/C (dose: 40.0 mg/kg/injection, schedule: Q01DX001 (ip), vehicle: acetone) was 86 % of control, the T/C (dose: 40.0 mg/kg/injection, schedule: Q04DX003 (ip), vehicle: acetone) was 97 % of control and the T/C [1] was 94 % of control. The T/C (dose: 75.0 mg/kg/injection, schedule: Q01DX009 (ip), vehicle: saline) was 112 % of control, the T/C (dose: 115.0 mg/kg/injection, schedule: Q01DX009 (ip), vehicle: saline) was 106 % of control and the T/C (dose: 170.0 mg/kg/injection, schedule: Q01DX009 (ip), vehicle: saline) was 98 % of control.
`O=C1c2cc(Br)ccc2-c2c(I)cc(Br)cc21` was tested, and the T/C [2] was 103 % of control, the T/C [3] was 100 % of control and the T/C [4] was 100 % of control. For the same compound, the T/C [5] was 100 % of control.
In the case of `CCCCCCCC(=O)N1CCCN(C(=O)CCCCCCC)C1`, the T/C (dose: 30.0 mg/kg/injection, schedule: Q01DX001 (ip), vehicle: saline) is reported as 94 % of control and the T/C [6] is reported as 100 % of control.
`CN=C(NC)c1ccc(NC(=NC)c2ccc(C(=NC)Nc3ccc(C(=NC)NC)cc3)cc2)cc1` was tested, and the T/C (dose: 0.5 mg/kg/injection, schedule: Q01DX Z (ip), vehicle: saline) was 96 % of control, the T/C (dose: 0.8 mg/kg/injection, schedule: Q01DX Z (ip), vehicle: saline) was 94 % of control and the T/C (dose: 1.2 mg/kg/injection, schedule: Q01DX Z (ip), vehicle: saline) was 100 % of control. For the same compound, the T/C (dose: 1.7 mg/kg/injection, schedule: Q01DX Z (ip), vehicle: saline) was 105 % of control, the T/C (dose: 1.77 mg/kg/injection, schedule: Q01DX Z (ip), vehicle: saline) was 98 % of control and the T/C (dose: 2.66 mg/kg/injection, schedule: Q01DX Z (ip), vehicle: saline) was 104 % of control. For the same compound, the T/C (dose: 4.0 mg/kg/injection, schedule: Q01DX Z (ip), vehicle: saline) was 89 % of control and the T/C (dose: 6.0 mg/kg/injection, schedule: Q01DX Z (ip), vehicle: saline) was 93 % of control and 103 % of control.
`Cc1ccc(S(=O)(=O)N2CC(O)C(O)C2CO)cc1` (stereo not given) was tested, and the T/C (dose: 50.0 mg/kg/injection, schedule: Q01DX005 (ip), vehicle: saline) was 96 % of control, the T/C (dose: 100.0 mg/kg/injection, schedule: Q01DX005 (ip), vehicle: saline) was 104 % of control and the T/C (dose: 200.0 mg/kg/injection, schedule: Q01DX005 (ip), vehicle: saline) was 102 % of control.
For `CCN(CC)CC1CO1` (stereo not given), the T/C (dose: 7.5 mg/kg/injection, schedule: Q01DX009 (ip), vehicle: saline) was 102 % of control and the T/C (dose: 15.0 mg/kg/injection, schedule: Q01DX009 (ip), vehicle: saline) was 97 % of control.
`O=C(O)c1ccccc1SSc1ccccc1C(=O)O` was tested, and the T/C [2] was 100 % of control, the T/C [3] was 100 % of control and the T/C [4] was 96 % of control. The T/C [5] was 103 % of control.
`Cn1c(=O)c(-c2ccccc2)[n+]([O-])c2ccccc21` was tested, and the T/C (dose: 50.0 mg/kg/injection, schedule: Q01DX001 (ip), vehicle: saline) was 104 % of control, the T/C [6] was 101 % of control and the T/C [7] was 101 % of control. The T/C (dose: 400.0 mg/kg/injection, schedule: Q01DX001 (ip), vehicle: saline) was 101 % of control.
`CCCCCCCCCCCCCCOc1ccc(S(=O)(=O)/N=C(\N)NC(N)=NCCCCCCCCCC)cc1` was tested, and the T/C (dose: 100.0 mg/kg/injection, schedule: Q04DX002 (ip), vehicle: Klucel (hydroxypropylcellulose) (HPC)) was 89 % of control, the T/C (dose: 200.0 mg/kg/injection, schedule: Q04DX002 (ip), vehicle: Klucel (hydroxypropylcellulose) (HPC)) was 101 % of control and the T/C (dose: 400.0 mg/kg/injection, schedule: Q04DX002 (ip), vehicle: Klucel (hydroxypropylcellulose) (HPC)) was 89 % of control.
With `NNC(=O)[C@H]1CC[C@H]1C(=O)NN` the T/C [1] was 102 % of control, the T/C [8] was 109 % of control and the T/C [9] was 103 % of control. The T/C (dose: 130.0 mg/kg/injection, schedule: Q01DX009 (ip), vehicle: saline) was 106 % of control, the T/C [10] was 106 % of control and the T/C [11] was 104 % of control. For the same compound, the T/C (dose: 264.0 mg/kg/injection, schedule: Q04DX003 (ip), vehicle: saline) was 105 % of control and 118 % of control and 91 % of control.
For `Brc1cccc[n+]1-c1ccc2cc(-[n+]3ccccc3Br)ccc2c1`, the T/C (dose: 9.38 mg/kg/injection, schedule: Q01DX001 (ip), vehicle: other) was 100 % of control.
`S=P(NNc1ccccc1)(NNc1ccccc1)c1ccc(Cl)cc1` was tested, and the T/C (dose: 100.0 mg/kg/injection, schedule: Q04DX002 (ip), vehicle: gum acacia) was 89 % of control, the T/C (dose: 200.0 mg/kg/injection, schedule: Q04DX002 (ip), vehicle: gum acacia) was 89 % of control and the T/C (dose: 400.0 mg/kg/injection, schedule: Q04DX002 (ip), vehicle: gum acacia) was 92 % of control.
For `Cc1nc(SCc2ccccc2)[nH]c(=O)c1CC(C)O` (stereo not given), the T/C (dose: 100.0 mg/kg/injection, schedule: Q04DX003 (ip), vehicle: Klucel (hydroxypropylcellulose) (HPC)) was 104 % of control, the T/C (dose: 200.0 mg/kg/injection, schedule: Q04DX003 (ip), vehicle: Klucel (hydroxypropylcellulose) (HPC)) was 97 % of control and the T/C (dose: 400.0 mg/kg/injection, schedule: Q04DX003 (ip), vehicle: Klucel (hydroxypropylcellulose) (HPC)) was 104 % of control.
`O=C(OCC1OC(n2cnc3c(=S)nc[nH]c32)C(OC(=O)c2ccc([N+](=O)[O-])cc2)C1OC(=O)c1ccc([N+](=O)[O-])cc1)c1ccc([N+](=O)[O-])cc1` (stereo not given) was tested, and the T/C (dose: 16.5 mg/kg/injection, schedule: Q01DX009 (ip), vehicle: saline with Tween-80) was 95 % of control, the T/C (dose: 33.0 mg/kg/injection, schedule: Q01DX009 (ip), vehicle: saline with Tween-80) was 117 % of control and the T/C [6] was 121 % of control. For the same compound, the T/C (dose: 100.0 mg/kg/injection, schedule: Q01DX Z (ip), vehicle: other) was 112 % of control, the T/C (dose: 132.0 mg/kg/injection, schedule: Q01DX001 (ip), vehicle: saline) was 111 % of control and 118 % of control and the T/C [7] was 106 % of control and 120 % of control. For the same compound, the T/C [10] was 152 % of control, the T/C (dose: 300.0 mg/kg/injection, schedule: Q01DX001 (ip), vehicle: saline) was 117 % of control and the T/C (dose: 800.0 mg/kg/injection, schedule: Q01DX Z (ip), vehicle: other) was 93 % of control.
With `C=CCC(CC)(C(=O)OCC)C(=O)OCC` the T/C [8] was 107 % of control, the T/C [9] was 102 % of control and the T/C [10] was 98 % of control. For the same compound, the T/C [11] was 113 % of control, the T/C (dose: 400.0 mg/kg/injection, schedule: Q01DX009 (ip), vehicle: saline) was 95 % of control and the T/C (dose: 400.0 mg/kg/injection, schedule: Q04DX003 (ip), vehicle: saline) was 96 % of control.
For `COc1ccc(-c2cc(C(=O)O)c3ccc(C)cc3n2)cc1`, the T/C (dose: 100.0 mg/kg/injection, schedule: Q01DX009 (ip), vehicle: saline with Tween-80) was 103 % of control, the T/C (dose: 200.0 mg/kg/injection, schedule: Q01DX009 (ip), vehicle: saline with Tween-80) was 95 % of control and the T/C (dose: 400.0 mg/kg/injection, schedule: Q01DX009 (ip), vehicle: saline with Tween-80) was 96 % of control.
For `COP(=O)(O)NC(C)=O`, the T/C (dose: 100.0 mg/kg/injection, schedule: Q04DX002 (ip), vehicle: saline) was 105 % of control, the T/C (dose: 200.0 mg/kg/injection, schedule: Q04DX002 (ip), vehicle: saline) was 108 % of control and the T/C (dose: 400.0 mg/kg/injection, schedule: Q04DX002 (ip), vehicle: saline) was 91 % of control.
In the case of `O=C(O)/C=C/c1cc(O)c(O)c(O)c1`, the T/C (dose: 25.0 mg/kg/injection, schedule: Q01DX001 (ip), vehicle: other) is reported as 100 % of control, the T/C (dose: 50.0 mg/kg/injection, schedule: Q01DX001 (ip), vehicle: other) is reported as 99 % of control and the T/C (dose: 100.0 mg/kg/injection, schedule: Q01DX001 (ip), vehicle: other) is reported as 94 % of control.
`N#Cc1ccc[nH]1` was tested, and the T/C (dose: 100.0 mg/kg/injection, schedule: Q01DX001 (sc), vehicle: carboxymethylcellulose (CMC)) was 121 % of control, the T/C (dose: 177.0 mg/kg/injection, schedule: Q01DX001 (ip), vehicle: carboxymethylcellulose (CMC)) was 108 % of control and the T/C (dose: 200.0 mg/kg/injection, schedule: Q01DX001 (sc), vehicle: carboxymethylcellulose (CMC)) was 110 % of control. For the same compound, the T/C (dose: 266.0 mg/kg/injection, schedule: Q01DX001 (ip), vehicle: carboxymethylcellulose (CMC)) was 96 % of control and the T/C [5] was 102 % of control.
